In US20260217701A1, “SELECTIVE BET INHIBITORS AND USES THEREOF” (Tay Therapeutics Limited, priority 2022, published 2026):

Assays:
[1] = Bleomycin IPF model: body weight and mortality; type: in vivo, C57BI/6J mice; design: Mean Body Weight Change: unit not given here
Procedure: (§1) Male C57BI/6J mice, aged 12 weeks with an approximate weight of 25-30 g were obtained from Jackson Laboratories (Bar Harbor, ME). Animals were acclimated for two weeks prior to study initiation, and were randomized into the experimental groups outlined in Table 32.
(§2) Intratracheal (IT) administration of Bleo or PBS control was conducted at the start of the study (Day 0). […] Animals were weighed on Day 0, and indexed boluses of PBS control (Group 1) or Bleo (Groups 2-6) were delivered by IT administration.
Following administration of Bleo, animals (n=10/group) were included in the study if they met the following guidelines on Day 7: (1) a predictable 5% loss in body weight, and (2) the presence of fibrotic pulmonary lesions, detected by micro-CT imaging. 10 animals from Group 1 additionally proceeded as controls. Animals that continued in the study on Day 7 received an oral gavage (OG) administration of PBS, Compound A (1 mg/kg, 3 mg/kg, 10 mg/kg), or Pirfenidone (300 mg/kg), as outlined in Table 31 in 25 μL boluses every other day (QOD), starting on Day 7. Compound A was formulated in 5% (v/v) DMSO/15% (v/v) PEG 400/80% (v/v) E-TPGS in purified water. […]

[2] = tested on: idiopathic pulmonary fibrosis (bleomycin); assay: Bleomycin IPF model: oxygen saturation (pulse oximetry); type: in vivo, C57BI/6J mice; conditions: for Oxygen saturation levels: Bleo mice
Procedure: as §1, §2
Following administration of Bleo, animals (n=10/group) were included in the study if they met the following guidelines on Day 7: (1) a predictable 5% loss in body weight, and (2) the presence of fibrotic pulmonary lesions, detected by micro-CT imaging. 10 animals from Group 1 additionally proceeded as controls. Animals that continued in the study on Day 7 received an oral gavage (OG) administration of PBS, Compound A (1 mg/kg, 3 mg/kg, 10 mg/kg), or Pirfenidone (300 mg/kg), as outlined in Table 31 in 25 μL boluses every other day (QOD), starting on Day 7. Compound A was formulated in 5% (v/v) DMSO/15% (v/v) PEG 400/80% (v/v) E-TPGS in purified water.
Body weights were obtained at Day 0 at the start of the study, and again at Day 7 to determine if an animal continued in the study. Body weight was measured daily from Day 7 until Day 21, and oxygen saturation was measured by a pulse oximetry (MouseOx) system QOD from Day 7 until study completion on Day 21, and results were plotted and analyzed by Kaplan-Meier plots.

[3] = Bleo + Compound A (1 mg/kg) OG QOD from D7, Day 7
[4] = Bleo + Compound A (1 mg/kg) OG QOD from D7, Day 9
[5] = Bleo + Compound A (1 mg/kg) OG QOD from D7, Day 11
[6] = Bleo + Compound A (1 mg/kg) OG QOD from D7, Day 13
[7] = Bleo + Compound A (1 mg/kg) OG QOD from D7, Day 15
[8] = Bleo + Compound A (1 mg/kg) OG QOD from D7, Day 17
[9] = Bleo + Compound A (1 mg/kg) OG QOD from D7, Day 19
[10] = Bleo + Compound A (1 mg/kg) OG QOD from D7, Day 21
[11] = Bleo + Compound A (3 mg/kg) OG QOD from D7, Day 7
[12] = Bleo + Compound A (3 mg/kg) OG QOD from D7, Day 9
[13] = Bleo + Compound A (3 mg/kg) OG QOD from D7, Day 11
[14] = Bleo + Compound A (3 mg/kg) OG QOD from D7, Day 13
[15] = Bleo + Compound A (3 mg/kg) OG QOD from D7, Day 15
[16] = Bleo + Compound A (3 mg/kg) OG QOD from D7, Day 17
[17] = Bleo + Compound A (3 mg/kg) OG QOD from D7, Day 19
[18] = Bleo + Compound A (3 mg/kg) OG QOD from D7, Day 21
[19] = Bleo + Compound A (10 mg/kg) OG QOD from D7, Day 7
[20] = Bleo + Compound A (10 mg/kg) OG QOD from D7, Day 9
[21] = Bleo + Compound A (10 mg/kg) OG QOD from D7, Day 11
[22] = Bleo + Compound A (10 mg/kg) OG QOD from D7, Day 13
[23] = Bleo + Compound A (10 mg/kg) OG QOD from D7, Day 15
[24] = Bleo + Compound A (10 mg/kg) OG QOD from D7, Day 17
[25] = Bleo + Compound A (10 mg/kg) OG QOD from D7, Day 19
[26] = Bleo + Compound A (10 mg/kg) OG QOD from D7, Day 21

## Cn1cc(-c2ccccc2)c(-c2cn(C)c(=O)c3[nH]c(-c4cnn(C(F)(F)F)c4)cc23)cc1=O [Compound A, 6-methyl-4-(1-methyl-2-oxo-5-phenyl-1,2-dihydropyridin-4-yl)-2-(1-(trifluoromethyl)-1H-pyrazol-4-yl)-1,6-dihydro-7H-pyrrolo[2,3-c]pyridin-7-one]
[1]; Bleo + Compound A (1 mg/kg) OG QOD from D7, Day 1
  Mean Body Weight Change: 1.269
[1]; Bleo + Compound A (1 mg/kg) OG QOD from D7, Day 2
  Mean Body Weight Change: −0.061
[1]; Bleo + Compound A (1 mg/kg) OG QOD from D7, Day 3
  Mean Body Weight Change: −0.538
[1]; Bleo + Compound A (1 mg/kg) OG QOD from D7, Day 4
  Mean Body Weight Change: −4.382
[1]; Bleo + Compound A (1 mg/kg) OG QOD from D7, Day 5
  Mean Body Weight Change: −8.986
[1]; Bleo + Compound A (1 mg/kg) OG QOD from D7, Day 6
  Mean Body Weight Change: −11.204
[1]; [3]
  Mean Body Weight Change: −14.465
[1]; Bleo + Compound A (1 mg/kg) OG QOD from D7, Day 8
  Mean Body Weight Change: −18.012
[1]; [4]
  Mean Body Weight Change: −17.310
[1]; Bleo + Compound A (1 mg/kg) OG QOD from D7, Day 10
  Mean Body Weight Change: −17.947
[1]; [5]
  Mean Body Weight Change: −16.922
[1]; Bleo + Compound A (1 mg/kg) OG QOD from D7, Day 12
  Mean Body Weight Change: −17.204
[1]; [6]
  Mean Body Weight Change: −16.710
[1]; Bleo + Compound A (1 mg/kg) OG QOD from D7, Day 14
  Mean Body Weight Change: −16.996
[1]; [7]
  Mean Body Weight Change: −16.840
[1]; Bleo + Compound A (1 mg/kg) OG QOD from D7, Day 16
  Mean Body Weight Change: 16.698
[1]; [8]
  Mean Body Weight Change: −16.509
[1]; Bleo + Compound A (1 mg/kg) OG QOD from D7, Day 18
  Mean Body Weight Change: −16.113
[1]; [9]
  Mean Body Weight Change: −16.612
[1]; Bleo + Compound A (1 mg/kg) OG QOD from D7, Day 20
  Mean Body Weight Change: −16.506
[1]; [10]
  Mean Body Weight Change: −16.978
[1]; Bleo + Compound A (3 mg/kg) OG QOD from D7, Day 1
  Mean Body Weight Change: 0.712
[1]; Bleo + Compound A (3 mg/kg) OG QOD from D7, Day 2
  Mean Body Weight Change: −0.088
[1]; Bleo + Compound A (3 mg/kg) OG QOD from D7, Day 3
  Mean Body Weight Change: −1.018
[1]; Bleo + Compound A (3 mg/kg) OG QOD from D7, Day 4
  Mean Body Weight Change: −5.198
[1]; Bleo + Compound A (3 mg/kg) OG QOD from D7, Day 5
  Mean Body Weight Change: −8.915
[1]; Bleo + Compound A (3 mg/kg) OG QOD from D7, Day 6
  Mean Body Weight Change: −11.426
[1]; [11]
  Mean Body Weight Change: −14.024
[1]; Bleo + Compound A (3 mg/kg) OG QOD from D7, Day 8
  Mean Body Weight Change: −18.310
[1]; [12]
  Mean Body Weight Change: 18.416
[1]; Bleo + Compound A (3 mg/kg) OG QOD from D7, Day 10
  Mean Body Weight Change: −19.029
[1]; [13]
  Mean Body Weight Change: −17.826
[1]; Bleo + Compound A (3 mg/kg) OG QOD from D7, Day 12
  Mean Body Weight Change: −18.384
[1]; [14]
  Mean Body Weight Change: −18.055
[1]; Bleo + Compound A (3 mg/kg) OG QOD from D7, Day 14
  Mean Body Weight Change: −18.840
[1]; [15]
  Mean Body Weight Change: −19.765
[1]; Bleo + Compound A (3 mg/kg) OG QOD from D7, Day 16
  Mean Body Weight Change: −19.797
[1]; [16]
  Mean Body Weight Change: −20.566
[1]; Bleo + Compound A (3 mg/kg) OG QOD from D7, Day 18
  Mean Body Weight Change: −21.350
[1]; [17]
  Mean Body Weight Change: −20.021
[1]; Bleo + Compound A (3 mg/kg) OG QOD from D7, Day 20
  Mean Body Weight Change: −22.069
[1]; [18]
  Mean Body Weight Change: −22.585
[1]; Bleo + Compound A (10 mg/kg) OG QOD from D7, Day 1
  Mean Body Weight Change: 1.987
[1]; Bleo + Compound A (10 mg/kg) OG QOD from D7, Day 2
  Mean Body Weight Change: 2.172
[1]; Bleo + Compound A (10 mg/kg) OG QOD from D7, Day 3
  Mean Body Weight Change: 0.974
[1]; Bleo + Compound A (10 mg/kg) OG QOD from D7, Day 4
  Mean Body Weight Change: 4.101
[1]; Bleo + Compound A (10 mg/kg) OG QOD from D7, Day 5
  Mean Body Weight Change: −8.131
[1]; Bleo + Compound A (10 mg/kg) OG QOD from D7, Day 6
  Mean Body Weight Change: −9.560
[1]; [19]
  Mean Body Weight Change: −11.173
[1]; Bleo + Compound A (10 mg/kg) OG QOD from D7, Day 8
  Mean Body Weight Change: −14.286
[1]; [20]
  Mean Body Weight Change: −15.876
[1]; Bleo + Compound A (10 mg/kg) OG QOD from D7, Day 10
  Mean Body Weight Change: −16.428
[1]; [21]
  Mean Body Weight Change: −14.809
[1]; Bleo + Compound A (10 mg/kg) OG QOD from D7, Day 12
  Mean Body Weight Change: −13.953
[1]; [22]
  Mean Body Weight Change: −15.394
[1]; Bleo + Compound A (10 mg/kg) OG QOD from D7, Day 14
  Mean Body Weight Change: −13.610
[1]; [23]
  Mean Body Weight Change: −15.280
[1]; Bleo + Compound A (10 mg/kg) OG QOD from D7, Day 16
  Mean Body Weight Change: −13.218
[1]; [24]
  Mean Body Weight Change: −13.174
[1]; Bleo + Compound A (10 mg/kg) OG QOD from D7, Day 18
  Mean Body Weight Change: −14.218
[1]; [25]
  Mean Body Weight Change: −15.010
[1]; Bleo + Compound A (10 mg/kg) OG QOD from D7, Day 20
  Mean Body Weight Change: −16.208
[1]; [26]
  Mean Body Weight Change: −16.139
[1]; Bleo mice, 10 mg/kg
  Ending body weight at Day 21: higher ending weight at Day 21
[1]; Bleo mice, all doses tested (1, 3, 10 mg/kg)
  Body weight course after start of administration: weight loss was arrested
[1]; Compound A (all doses tested), Pirfenidone (300 mg/kg)
  Body weight compared with Bleo+Saline treated animals: No significant difference
[1]; OG administration, IPF study
  Deaths / mortality: no deaths or significant changes in mortality
[2]; 3 mg/kg and 10 mg/kg
  Recovery in oxygen saturation relative to IPF control group (Bleo+Saline): significant recovery in oxygen saturation levels
[2]; [3]
  Mean Oxygen Saturation: 80.6
[2]; [4]
  Mean Oxygen Saturation: 84.25
[2]; [5]
  Mean Oxygen Saturation: 87.17
[2]; [6]
  Mean Oxygen Saturation: 88.03
[2]; [7]
  Mean Oxygen Saturation: 88.58
[2]; [8]
  Mean Oxygen Saturation: 88.48
[2]; [9]
  Mean Oxygen Saturation: 89.87
[2]; [10]
  Mean Oxygen Saturation: 87.67
[2]; [11]
  Mean Oxygen Saturation: 82.08
[2]; [12]
  Mean Oxygen Saturation: 83.77
[2]; [13]
  Mean Oxygen Saturation: 85.05
[2]; [14]
  Mean Oxygen Saturation: 85.67
[2]; [15]
  Mean Oxygen Saturation: 85.97
[2]; [16]
  Mean Oxygen Saturation: 89.18
[2]; [17]
  Mean Oxygen Saturation: 89.6
[2]; [18]
  Mean Oxygen Saturation: 89.88
[2]; [19]
  Mean Oxygen Saturation: 82.75
[2]; [20]
  Mean Oxygen Saturation: 84.07
[2]; [21]
  Mean Oxygen Saturation: 86.87
[2]; [22]
  Mean Oxygen Saturation: 87.5
[2]; [23]
  Mean Oxygen Saturation: 88.87
[2]; [24]
  Mean Oxygen Saturation: 89.23
[2]; [25]
  Mean Oxygen Saturation: 92.22
[2]; [26]
  Mean Oxygen Saturation: 93.58
[2]; 3 mg/kg, Day 21
  Oxygen saturation levels: about 90%
[2]; 10 mg/kg, Day 21
  Oxygen saturation levels: about 93.6%
[2]; IPF model
  Improvement of oxygen saturation versus pirfenidone: superior to pirfenidone in improving oxygen saturation
